Assay results: patent publication EP4744648A1, “LIPOPEPTIDE-CONTAINING FAT-DISSOLVING PRODUCT, AND PREPARATION METHOD THEREFOR AND USE THEREOF” (Bloomage Biotechnology Corporation Limited, priority 2023, dated 2024)

Tests used:
[1] = Surface tension at serial dilutions (CMC value determination), automatic interfacial tensiometer; assay type: physicochemical
Description: A 0.1% surfactin HXRZ solution and a sodium deoxycholate solution were separately prepared using purified water, followed by serial dilution to obtain different gradient concentrations. The surface tensions at different concentrations were determined respectively via a JZ-200A automatic interfacial tensiometer. Table 1 CMC value determination results

[2] = tested on: Mouse adipocyte cell line 3T3-F442A; assay: In vitro cytotoxicity test: relative growth rate of cells by CCK-8; assay type: cell-based
Description: In accordance with GB/T 16886.5 Biological evaluation of medical devices-Part 5: In vitro cytotoxicity tests (GB/T 16886.5-2017/ISO 10993-5:2009, IDT), and the test was performed with reference to the methods specified therein. The detailed experimental procedures are as follows:
Mouse adipocyte cell line 3T3-F442A in the logarithmic growth phase was seeded into a 96-well plate at a density of 1×10^5 cells/mL, with 100 µL per well. The culture medium consisted of a basal culture medium supplemented with 10% fetal bovine serum. The seeded cells were incubated conventionally in a carbon dioxide incubator at 37°C and 5% CO2 for 24 h.
The solution was freshly prepared before use.
After routine incubation for 24 h, the old culture medium was discarded, and then 100 µL of sample solution was added to replace it in the experimental group. An equal volume of serum-free culture medium was added to the normal control group. Each concentration was set up with at least three replicate wells.
After another incubation for 24 h, the relative growth rate of cells was detected by CCK-8. The culture medium was discarded, 100 µL of CCK-8 diluted 10-fold with the serum-free medium was added to each well. The plate was incubated in a cell incubator for another 2 h. The absorbance was determined using a microplate reader at a wavelength of 450 nm. The relative growth rate (RGR) is a ratio of the absorbance of the experimental group to the absorbance of the normal control group.
The experimental procedures in Example 3 were the same as those in Example 2 except that treatment durations were 0.5 h, 4 h and 24 h. The determination results of the relative growth rates of 3T3-F442A cells treated with surfactin HXRZ and sodium deoxycholate for different durations are shown in Table 3. Table 3 Relative growth rate (%)
3T3-F442A mouse adipocytes in the logarithmic growth phase were seeded into a 96-well plate at a density of 1 × 10^5 cells/mL, with 100 µL per well. After incubation for 24 h, the culture medium was replaced with 100 µL of culture medium containing different concentrations of samples. An equal volume of serum-free culture medium was added to the blank control group, and the incubation was continued for another 24 h. The relative growth rate of cells was determined by CCK-8. The blank control was set as 100%, the relative growth rate and half inhibitory concentration of each group were calculated. The method was the same as that in Example 2.

[3] = tested on: transgenic obese (ob/ob) mice; assay: Degradation of gluteal adipose tissue after injection into adipose pads of the left buttock (H-E sections, site observation); assay type: in vivo; details: Example 4, 1 %
Description: 6-week-old transgenic obese (ob/ob) mice were used as the animal model. Different drugs were injected into the adipose pads of the left buttock. The mice were totally divided into three groups with 7-10 mice per group, as specified below. • 1) Negative control group: injected with 200 µL of sterile normal saline; • 2) 1% sodium deoxycholate group: injected with 200 µL of sterile normal saline solution containing 1% sodium deoxycholate; • 3) 0.1% surfactin HXRZ group: injected with 200 µL of sterile normal saline solution containing 0.1% surfactin HXRZ.
The day of the first administration was defined as Day 1 of the experiment. Additional administrations were performed on Day 3 and Day 5, respectively. The general condition and administration sites of the mice were observed regularly throughout the experiment. On Day 21 of the experiment, the mice were sacrificed and dissected. The adipose tissue of the left buttock was isolated, fixed immediately in adipose tissue fixative, and then embedded in paraffin. The adipose tissue was stained by hematoxylin and eosin staining for pathological examination, followed by observation and analysis under an optical microscope.
Specifically, 6-week-old transgenic obese (ob/ob) mice were used as the animal model, with one mouse per group. 200 µL each of 0.5% and 1% surfactin HXRZ normal saline solutions (test samples) were injected into the adipose pads of the left buttock, respectively. The day of the first administration was defined as Day 1 of the experiment. Additional administrations were performed on Day 3 and Day 5, respectively. The general condition and administration sites of the mice were observed regularly throughout the experiment. On Day 21 of the experiment, the mice were sacrificed and dissected. The adipose tissue of the left buttock of the mice was isolated, fixed immediately in adipose tissue fixative, and then embedded in paraffin. The adipose tissue was stained by hematoxylin and eosin staining for pathological examination, followed by observation and analysis under an optical microscope.

Kunming mice [4] = assay: Preliminary study on degradation of inguinal adipose tissue, subcutaneous injection once every 7 days; assay type: in vivo; details: for ulceration at the administration sites: 200 µL s.c. left inguinal, after two administrations, n = 3
Description: Administration was performed once every 7 days. […] 7-9.

Kunming mice [5] = assay: Efficacy and side effects on degradation of inguinal adipose tissue, subcutaneous injection once every 14 days; assay type: in vivo; details: 1 %; for Adipocyte density (n/mm^2): day 42, M±SEM
Description: The adipocyte density was then calculated.
Table 6 Local inflammation in mice of each group

Female Kunming mice = assay: Animal experiment comparing surfactin-C14 and surfactin-C15: subcutaneous injection in right inguinal region, four administrations; assay type: in vivo
Excerpt: The higher drug concentration indicated the more obvious effect.

[6] = Observation of solubility in water; assay type: physicochemical; details: added to water; room temperature
[7] = tested on: Mouse adipocyte cell line 3T3-F442A; assay: In vitro cytotoxicity test: relative growth rate of cells by CCK-8; assay type: cell-based; details: 0.5 mg/mL
[8] = 10 mg/mL, four administrations, H-E sections

Substance Sodium deoxycholate has a Surface tension value ([1]; solution concentration 0.00078125 % in purified water) of 68.51 mN/m, a Surface tension value ([1]; solution concentration 0.0015625 % in purified water) of 66.57 mN/m and a Surface tension value ([1]; solution concentration 0.003125 % in purified water) of 65.06 mN/m. It also gave a Surface tension value ([1]; solution concentration 0.00625 % in purified water) of 63.17 mN/m, a Surface tension value ([1]; solution concentration 0.0125 % in purified water) of 60.50 mN/m and a Surface tension value ([1]; solution concentration 0.025 % in purified water) of 57.94 mN/m. It also gave a Surface tension value ([1]; solution concentration 0.05 % in purified water) of 55.40 mN/m, a Surface tension value ([1]; solution concentration 0.1 % in purified water) of 53.47 mN/m and a Surface tension value ([1]; solution concentration 0.1 % in purified water, listed as sodium deoxycholate) of 53 mN/m. The “treatment time at which adipocytes were completely lysed” value ([2]; 0.5 mg/mL) was 0.5 h, the “half maximal inhibitory concentrations IC50” value ([2]; 3T3-F442A adipocytes, 24 h, calculated from Table 2 curves) was 260.5 µg/mL and the “Relative growth rate (%)” value ([2]; Example 2, 0.125 mg/mL, 24 h, 3T3-F442A) was 98.64±1.74%. The “Relative growth rate (%)” value ([2]; Example 2, 0.25 mg/mL, 24 h, 3T3-F442A) was 55.58±3.66%, the “Relative growth rate (%)” value ([2]; Example 2, 0.3 mg/mL, 24 h, 3T3-F442A) was 23.83±3.45% and the “Relative growth rate (%)” value ([2]; Example 2, 0.4 mg/mL, 24 h, 3T3-F442A) was 10.92±0.48%. The “Relative growth rate (%)” value ([2]; Example 2, 0.5 mg/mL, 24 h, 3T3-F442A) was 10.7±0.11%, the “Relative growth rate (%)” value ([2]; Example 3, 0.3 mg/mL, 0.5 h) was 71.17±4.00% and the “Relative growth rate (%)” value ([2]; Example 3, 0.3 mg/mL, 4 h) was 61.46±9.30%. The “Relative growth rate (%)” value ([2]; Example 3, 0.3 mg/mL, 24 h) was 10.70±3.45%, the “Relative growth rate (%)” value ([2]; Example 3, 0.4 mg/mL, 0.5 h) was 28.78±6.59% and the “Relative growth rate (%)” value ([2]; Example 3, 0.4 mg/mL, 4 h) was 23.81±1.24%. The “Relative growth rate (%)” value ([2]; Example 3, 0.4 mg/mL, 24 h) was 10.92±0.48%, the “Relative growth rate (%)” value ([2]; Example 3, 0.5 mg/mL, 0.5 h) was 12.78±0.67% and the “Relative growth rate (%)” value ([2]; Example 3, 0.5 mg/mL, 4 h) was 17.24±0.02%. The “Relative growth rate (%)” value ([2]; Example 3, 0.5 mg/mL, 24 h) was 10.69±0.11%, the “degradation of adipose tissue at the administration sites (H-E sections, FIG. 5)” value ([3]; 200 µL in normal saline, left buttock, Days 1, 3, 5, Day 21) was “induced the degradation of adipose tissue at the administration sites” and the “mice with obvious induration palpable at the administration sites” value ([3]; 200 µL, 7-10 mice per group) was “three”. For the same substance, the “mice with ulceration at the administration site” value ([3]; 200 µL, 7-10 mice per group) was “one”, the “ulceration at the administration sites” value (Kunming mice [4]; 1 %) was “visible ulceration was observed at the administration sites” and the healing of ulceration (Kunming mice [4]; 1 %, after a 7-day administration interval) was “healed completely”. The “ulceration at the administration sites” value (Kunming mice [4]; 2 %) was “ulceration occurred at the administration sites in all mice”, the healing of ulcers (Kunming mice [4]; 2 %, within the subsequent 7 days) was “failed to heal” and the “Adipose tissue weight” value (Kunming mice [5]; 200 µL s.c. left inguinal, once every 14 days, day 42, n = 9) was 0.1889 ± 0.0270 g. For the same substance, the “Adipocyte density (n/mm^2)” value (Kunming mice [5]; 200 µL s.c.) was 727.84±56.64 n/mm^2, the “Adipocyte density (n/mm^2)” value (Kunming mice [5]; 200 µL s.c., listed as sodium deoxycholate) was 727.84±56.64 n/mm^2 and the “Fat index (%)” value (Kunming mice [5]; 200 µL s.c., day 42, treated-side inguinal adipose weight/body weight × 100%) was 0.49±0.07 %. The “Subcutaneous nodule and induration” value (Kunming mice [5]; Day 1, number of mice (n = 9)) was 0, the Ulceration (Kunming mice [5]; Day 1, number of mice (n = 9)) was 0 and the “Subcutaneous nodule and induration” value (Kunming mice [5]; Day 7, number of mice (n = 9)) was 0. The Ulceration (Kunming mice [5]; Day 7, number of mice (n = 9)) was 2, the “Subcutaneous nodule and induration” value (Kunming mice [5]; Day 14, number of mice (n = 9)) was 2 and the Ulceration (Kunming mice [5]; Day 14, number of mice (n = 9)) was 0. For the same substance, the “Subcutaneous nodule and induration” value (Kunming mice [5]; Day 21, number of mice (n = 9)) was 8, the Ulceration (Kunming mice [5]; Day 21, number of mice (n = 9)) was 0 and the “Subcutaneous nodule and induration” value (Kunming mice [5]; Day 28, number of mice (n = 9)) was 5. The Ulceration (Kunming mice [5]; Day 28, number of mice (n = 9)) was 0, the “Subcutaneous nodule and induration” value (Kunming mice [5]; Day 35, number of mice (n = 9)) was 4 and the Ulceration (Kunming mice [5]; Day 35, number of mice (n = 9)) was 0. The “Subcutaneous nodule and induration” value (Kunming mice [5]; Day 42, number of mice (n = 9)) was 4, the Ulceration (Kunming mice [5]; Day 42, number of mice (n = 9)) was 0 and the “ulceration at the administration sites over the administration cycle” value (Kunming mice [5]; entire administration cycle) was “ulceration was observed at the administration sites”. The “Incidence of local adverse reactions, Fourth administration” value (Female Kunming mice; 10 mg/mL, 200 µL s.c.) was 83.33%, the “Incidence of local adverse reactions, Second administration” value (Female Kunming mice; 10 mg/mL, 200 µL s.c.) was 75.00% and the “Incidence of local adverse reactions, Third administration” value (Female Kunming mice; 10 mg/mL, 200 µL s.c.) was 66.67%. For the same substance, the “Incidence of local adverse reactions, First administration” value (Female Kunming mice; 10 mg/mL, 200 µL s.c., percentage of mice with abnormalities at the administration site) was 62.50%, the “Mean wet adipose tissue weight/body weight percentage (x±SEM, %)” value (Female Kunming mice; 10 mg/mL, four administrations) was 0.57±0.05 % and the “Mean wet adipose tissue weight (x±SEM, unit: g)” value (Female Kunming mice; 10 mg/mL, four administrations once every 14 days, right inguinal) was 0.224 ± 0.022 g. For the same substance, the “Mean adipocyte area (x±SEM, mm^2)” value (Female Kunming mice; [8]) was 0.003751±0.000614 mm^2, the “Mean adipocyte density (x±SEM, n/mm^2)” value (Female Kunming mice; [8]) was 322.3211±55.3047 n/mm^2 and the “incidence of adverse reactions” value (Female Kunming mice; over all four administrations, except first administration in the HXRZ-B high-dose group) was “exceeded 60%”. For the same substance, the solubility in water [6] was “poorly soluble”, the “cell morphology of adipocytes (inverted microscope, FIG. 4)” value ([7]; 4 h) was “nearly all cells died” and the “cell morphology of adipocytes (inverted microscope, FIG. 4)” value ([7]; 24 h) was “nearly all cells died”.
